This passage reports EC50 results from patent US9670261B2 (Sanofi, priority 2012, dated 2017).

*1 amine or outer side, *2 acyl side, *3 side chain or, on linkers, in order; H or OH if unused. Where a SMILES comes first, the peptide text is derived from it. Side-chain parts run from the residue outwards. [ ]: non-standard residue; d: D form. The star is where a group is joined. γGlu = O=C(O)[C@H](CCC(=O)[*:2])N[*:1]; Stearoyl = CCCCCCCCCCCCCCCCCC(=O)*; Palmitoyl = CCCCCCCCCCCCCCCC(=O)*; Aib = CC(C)(N)C(=O)O

The target of the first test is T1, human GLP-1 receptor (Homo sapiens, UniProt P43220).
T1 construct: expressed in transfected cells
T1 sequence (P43220 24-463): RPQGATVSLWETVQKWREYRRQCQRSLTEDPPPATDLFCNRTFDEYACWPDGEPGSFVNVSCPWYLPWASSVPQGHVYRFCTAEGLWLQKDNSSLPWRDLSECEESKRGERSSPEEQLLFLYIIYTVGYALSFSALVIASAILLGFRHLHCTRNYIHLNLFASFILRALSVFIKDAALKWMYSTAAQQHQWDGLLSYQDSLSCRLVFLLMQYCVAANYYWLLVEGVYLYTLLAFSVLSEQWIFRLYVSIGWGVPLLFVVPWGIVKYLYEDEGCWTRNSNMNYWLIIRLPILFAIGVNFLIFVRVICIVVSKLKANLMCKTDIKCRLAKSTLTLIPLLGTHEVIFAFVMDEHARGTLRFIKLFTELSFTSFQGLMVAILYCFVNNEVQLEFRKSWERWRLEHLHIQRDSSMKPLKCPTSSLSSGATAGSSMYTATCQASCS
Briefly: cAMP response (HTRF) of HEK-293 cells stably expressing human GLP-1 receptor. In kind it is cell-based. To be noted: Table 7; cAMP formation; read-out: EC50 hGLP-1 R. Here is the method:
cAMP content of cells was determined using a kit from Cisbio Corp. (cat. no. 62AM4PEC) based on HTRF (Homogenous Time Resolved Fluorescence). For preparation, cells were split into T175 culture flasks and grown overnight to near confluency in medium (DMEM/10% FBS). Medium was then removed and cells washed with PBS lacking calcium and magnesium, followed by proteinase treatment with accutase (Sigma-Aldrich cat. no. A6964). Detached cells were washed and resuspended in assay buffer (1×HBSS; 20 mM HEPES, 0.1% BSA, 2 mM IBMX) and cellular density determined. They were then diluted to 400000 cells/ml and 25 μl-aliquots dispensed into the wells of 96-well plates. For measurement, 25 μl of test compound in assay buffer was added to the wells, followed by incubation for 30 minutes at room temperature.
With `CCCCCCCCCCCCCCCCCC(=O)N[C@@H](CCC(=O)NCCCC[C@H](NC(=O)[C@H](CCC(N)=O)NC(=O)[C@@H](NC(=O)[C@H](CO)NC(=O)[C@H](CC(C)C)NC(=O)[C@H](CC(=O)O)NC(=O)[C@H](CO)NC(=O)[C@@H](NC(=O)[C@H](Cc1ccccc1)NC(=O)[C@@H](NC(=O)CNC(=O)[C@H](CCC(=O)O)NC(=O)C(C)(C)NC(=O)[C@@H](N)Cc1ccc(O)cc1)[C@@H](C)O)[C@@H](C)O)[C@@H](C)CC)C(=O)N[C@@H](CCC(=O)O)C(=O)N[C@@H](CCCCN)C(=O)N[C@@H](CCCNC(=N)N)C(=O)N[C@@H](C)C(=O)N[C@@H](C)C(=O)N[C@@H](CCC(N)=O)C(=O)N[C@@H](CCC(=O)O)C(=O)N[C@@H](Cc1ccccc1)C(=O)N[C@H](C(=O)N[C@@H](CCC(=O)O)C(=O)N[C@@H](Cc1c[nH]c2ccccc12)C(=O)N[C@@H](CC(C)C)C(=O)N[C@@H](CCCCN)C(=O)N[C@@H](CC(N)=O)C(=O)N[C@H](C(=O)NCC(=O)N1CCC[C@H]1C(=O)N[C@@H](CO)C(=O)N[C@@H](CO)C(=O)NCC(=O)N[C@@H](C)C(=O)N1CCC[C@H]1C(=O)N1CCC[C@H]1C(=O)N1CCC[C@H]1C(=O)N[C@@H](CO)C(N)=O)[C@@H](C)O)[C@@H](C)CC)C(=O)O` [SEQ ID NO: 19, Y-Aib-E-G-T-F-T-S-D-L-S-I-Q-K(γE-x70)-EKRAAQEFIEWLKNTGPSSGAPPPS-NH2] (H-Y[Aib]EGTFTSDLSIQK([γGlu-Stearoyl])EKRAAQEFIEWLKNTGPSSGAPPPS-NH2), the EC50 was found to be 4 pM.
In the case of `CCCCCCCCCCCCCCCC(=O)N[C@@H](CCC(=O)NCCCC[C@H](NC(=O)[C@H](CCC(N)=O)NC(=O)[C@@H](NC(=O)[C@H](CO)NC(=O)[C@H](CC(C)C)NC(=O)[C@H](CC(=O)O)NC(=O)[C@H](CO)NC(=O)[C@@H](NC(=O)[C@H](Cc1ccccc1)NC(=O)[C@@H](NC(=O)CNC(=O)[C@H](CCC(=O)O)NC(=O)C(C)(C)NC(=O)[C@@H](N)Cc1ccc(O)cc1)[C@@H](C)O)[C@@H](C)O)[C@@H](C)CC)C(=O)N[C@@H](CCC(=O)O)C(=O)N[C@@H](CO)C(=O)N[C@@H](CCCNC(=N)N)C(=O)N[C@@H](C)C(=O)N[C@@H](C)C(=O)NC(C)(C)C(=O)N[C@@H](CC(=O)O)C(=O)N[C@@H](Cc1ccccc1)C(=O)N[C@H](C(=O)N[C@@H](CCC(=O)O)C(=O)N[C@@H](Cc1c[nH]c2ccccc12)C(=O)N[C@@H](CC(C)C)C(=O)N[C@@H](CCCCN)C(=O)N[C@@H](CC(N)=O)C(=O)N[C@H](C(=O)NCC(=O)N1CCC[C@H]1C(=O)N[C@@H](CO)C(=O)N[C@@H](CO)C(=O)NCC(=O)N[C@@H](C)C(=O)N1CCC[C@H]1C(=O)N1CCC[C@H]1C(=O)N1CCC[C@H]1C(=O)N[C@@H](CO)C(N)=O)[C@@H](C)O)[C@@H](C)CC)C(=O)O` [SEQ ID NO: 24, Y-Aib-E-G-T-F-T-S-D-L-S-I-Q-K(γE-x53)-E-S-R-A-A-Aib-D-F-I-E-W-L-K-N-T-G-P-S-S-G-A-P-P-P-S-NH2] (H-Y[Aib]EGTFTSDLSIQK([γGlu-Palmitoyl])ESRAA[Aib]DFIEWLKNTGPSSGAPPPS-NH2), the half-maximal effective concentration (EC50) was 13.5 pM.
Take `CCCCCCCCCCCCCCCC(=O)N[C@@H](CCC(=O)NCCCC[C@H](NC(=O)[C@H](CCC(N)=O)NC(=O)[C@@H](NC(=O)[C@H](CO)NC(=O)[C@H](CC(C)C)NC(=O)[C@H](CC(=O)O)NC(=O)[C@H](CO)NC(=O)[C@@H](NC(=O)[C@H](Cc1ccccc1)NC(=O)[C@@H](NC(=O)CNC(=O)[C@H](CCC(N)=O)NC(=O)C(C)(C)NC(=O)[C@@H](N)Cc1ccc(O)cc1)[C@@H](C)O)[C@@H](C)O)[C@@H](C)CC)C(=O)N[C@@H](CC(=O)O)C(=O)N[C@@H](CCCCN)C(=O)N[C@@H](CCCNC(=N)N)C(=O)N[C@@H](C)C(=O)N[C@@H](C)C(=O)N[C@@H](CCC(N)=O)C(=O)N[C@@H](CC(=O)O)C(=O)N[C@@H](Cc1ccccc1)C(=O)N[C@H](C(=O)N[C@@H](CCC(=O)O)C(=O)N[C@@H](Cc1c[nH]c2ccccc12)C(=O)N[C@@H](CC(C)C)C(=O)N[C@@H](CCCCN)C(=O)N[C@@H](C)C(=O)NCC(=O)NCC(=O)N1CCC[C@H]1C(=O)N[C@@H](CO)C(=O)N[C@@H](CO)C(=O)NCC(=O)N[C@@H](C)C(=O)N1CCC[C@H]1C(=O)N1CCC[C@H]1C(=O)N1CCC[C@H]1C(=O)N[C@@H](CO)C(N)=O)[C@@H](C)CC)C(=O)O` [SEQ ID NO: 28, Y-Aib-Q-G-T-F-T-S-D-L-S-I-Q-K(γE-x53)-DKRAAQDFIEWLKAGGPSSGAPPPS-NH2] (H-Y[Aib]QGTFTSDLSIQK([γGlu-Palmitoyl])DKRAAQDFIEWLKAGGPSSGAPPPS-NH2): the EC50 came to 3.2 pM.
Still for that read-out and setting: to `CCCCCCCCCCCCCCCC(=O)N[C@@H](CCC(=O)NCCCC[C@H](NC(=O)[C@H](CCC(N)=O)NC(=O)[C@@H](NC(=O)[C@H](CO)NC(=O)[C@H](CC(C)C)NC(=O)[C@H](CC(=O)O)NC(=O)[C@H](CO)NC(=O)[C@@H](NC(=O)[C@H](Cc1ccccc1)NC(=O)[C@@H](NC(=O)CNC(=O)[C@H](CCC(N)=O)NC(=O)C(C)(C)NC(=O)[C@@H](N)Cc1ccc(O)cc1)[C@@H](C)O)[C@@H](C)O)[C@@H](C)CC)C(=O)N[C@@H](CC(=O)O)C(=O)N[C@@H](CO)C(=O)N[C@@H](CCCNC(=N)N)C(=O)N[C@@H](C)C(=O)N[C@@H](C)C(=O)N[C@@H](CCC(N)=O)C(=O)N[C@@H](CCC(=O)O)C(=O)N[C@@H](Cc1ccccc1)C(=O)N[C@H](C(=O)N[C@@H](CCC(=O)O)C(=O)N[C@@H](Cc1c[nH]c2ccccc12)C(=O)N[C@@H](CC(C)C)C(=O)N[C@@H](CCCCN)C(=O)N[C@@H](C)C(=O)NCC(=O)NCC(=O)N1CCC[C@H]1C(=O)N[C@@H](CO)C(=O)N[C@@H](CO)C(=O)NCC(=O)N[C@@H](C)C(=O)N1CCC[C@H]1C(=O)N1CCC[C@H]1C(=O)N1CCC[C@H]1C(=O)N[C@@H](CO)C(N)=O)[C@@H](C)CC)C(=O)O` [SEQ ID NO: 29, Y-Aib-Q-G-T-F-T-S-D-L-S-I-Q-K(γE-x53)-DSRAAQEFIEWLKAGGPSSGAPPPS-NH2] (H-Y[Aib]QGTFTSDLSIQK([γGlu-Palmitoyl])DSRAAQEFIEWLKAGGPSSGAPPPS-NH2) belongs 7 pM.
`CCCCCCCCCCCCCCCC(=O)N[C@@H](CCC(=O)NCCCC[C@H](NC(=O)[C@H](CCC(N)=O)NC(=O)[C@@H](NC(=O)[C@H](CO)NC(=O)[C@H](CC(C)C)NC(=O)[C@H](CC(=O)O)NC(=O)[C@H](CO)NC(=O)[C@@H](NC(=O)[C@H](Cc1ccccc1)NC(=O)[C@@H](NC(=O)CNC(=O)[C@H](CCC(=O)O)NC(=O)C(C)(C)NC(=O)[C@@H](N)Cc1ccc(O)cc1)[C@@H](C)O)[C@@H](C)O)[C@@H](C)CC)C(=O)N[C@@H](CCC(=O)O)C(=O)N[C@@H](CO)C(=O)N[C@@H](CCCNC(=N)N)C(=O)N[C@@H](C)C(=O)N[C@@H](C)C(=O)N[C@@H](CCC(N)=O)C(=O)N[C@@H](CCC(=O)O)C(=O)N[C@@H](Cc1ccccc1)C(=O)N[C@H](C(=O)N[C@@H](CCC(=O)O)C(=O)N[C@@H](Cc1c[nH]c2ccccc12)C(=O)N[C@@H](CC(C)C)C(=O)N[C@@H](CCCCN)C(=O)N[C@@H](C)C(=O)NCC(=O)NCC(=O)N1CCC[C@H]1C(=O)N[C@@H](CO)C(=O)N[C@@H](CO)C(=O)NCC(=O)N[C@@H](C)C(=O)N1CCC[C@H]1C(=O)N1CCC[C@H]1C(=O)N1CCC[C@H]1C(=O)N[C@@H](CO)C(N)=O)[C@@H](C)CC)C(=O)O` [SEQ ID NO: 39, Y-Aib-E-G-T-F-T-S-D-L-S-I-Q-K(γE-x53)-ESRAAQEFIEWLKAGGPSSGAPPPS-NH2] (H-Y[Aib]EGTFTSDLSIQK([γGlu-Palmitoyl])ESRAAQEFIEWLKAGGPSSGAPPPS-NH2): the EC50 worked out at 4.3 pM.

Staying with this test, now noted: Table 8; functionalized vs non-functionalized position 14; read-out: EC50 hGLP-1 R.
Consider `CC[C@H](C)[C@H](NC(=O)[C@H](Cc1ccccc1)NC(=O)[C@H](CC(=O)O)NC(=O)[C@H](CCC(N)=O)NC(=O)[C@H](C)NC(=O)[C@H](C)NC(=O)[C@H](CCCNC(=N)N)NC(=O)[C@H](CO)NC(=O)[C@H](CCC(=O)O)NC(=O)[C@H](CC(C)C)NC(=O)[C@H](CCC(N)=O)NC(=O)[C@@H](NC(=O)[C@H](CO)NC(=O)[C@H](CC(C)C)NC(=O)[C@H](CC(=O)O)NC(=O)[C@H](CO)NC(=O)[C@@H](NC(=O)[C@H](Cc1ccccc1)NC(=O)[C@@H](NC(=O)CNC(=O)[C@H](CCC(N)=O)NC(=O)C(C)(C)NC(=O)[C@@H](N)Cc1ccc(O)cc1)[C@@H](C)O)[C@@H](C)O)[C@@H](C)CC)C(=O)N[C@@H](CCC(=O)O)C(=O)N[C@@H](Cc1c[nH]c2ccccc12)C(=O)N[C@@H](CC(C)C)C(=O)N[C@@H](CCCCN)C(=O)N[C@@H](C)C(=O)NCC(=O)NCC(=O)N1CCC[C@H]1C(=O)N[C@@H](CO)C(=O)N[C@@H](CO)C(=O)NCC(=O)N[C@@H](C)C(=O)N1CCC[C@H]1C(=O)N1CCC[C@H]1C(=O)N1CCC[C@H]1C(=O)N[C@@H](CO)C(N)=O` [SEQ ID NO: 40, Y-Aib-QGTFTSDLSIQLESRAAQDFIEWLKAGGPSSGAPPPS-NH2, reference compound] (H-Y[Aib]QGTFTSDLSIQLESRAAQDFIEWLKAGGPSSGAPPPS-NH2; N-terminus assumed), for which the half-maximal effective concentration (EC50) turned out to be 3.2 pM.
